We go through five molecules from patent US10745397B2, “1-Substituted 1,2,3,4-tetrahydro-1,7-naphthyridin-8-amine derivatives and their use as EP4 receptor antagonists” (TAKEDA PHARMACEUTICAL COMPANY LIMITED, priority 2015, dated 2020).

Experiment [1] relates to Adjuvant Induced Arthritis (AIA) Model in Female Lewis Rats. The experiment is described as follows: Suppression of arthritis development in adjuvant induced arthritis (AIA) model, arthritis score. The class given is in vivo, rat. The following applies: PO; for % reduction in arthritis score: day 14 to day 23, compared to vehicle treatment at end of study period; for ED50: Rattus norvegicus, BID, female Lewis rats. How it is done: Adjuvant arthritis was induced on day 1 in female Lewis rats (10-12 weeks) by intradermal injection of heat killed Mycobacterium tuberculosis in complete freund's adjuvant (CFA) intradermally (Mycobacterium tuberculosis 100 mg in 5 mL incomplete freunds adjuvant, 200 μL per rat). Animals were randomized into different treatment groups, each group consist of 8 animals based on clinical scores on day 14. The animals in control group were given CFA and in second control group were administered with CFA and vehicle (1% Tween-80+0.5% CMC, quantity sufficient, 3 ml/kg, PO), where as animals in experimental groups were treated with CFA and EP4 antagonist (Example B2 and Example B4) in therapeutic fashion orally twice a day (BID) from day 14 to day 23 at 0.1, 0.3, 1, 3, 10 and 30 mg/kg doses.
Animals were evaluated for clinical symptoms and scored accordingly for inflamed paws and erythema. The scorer was blind to the treatment groups. Key findings for example B2 (Refer FIG. 1) and B4 (Refer FIG. 2) in rat arthritis model are as follows.

Experiment [2] has as its target T1, hEP4 (C6 glioma cells overexpressing hEP4) (Homo sapiens, UniProt P35408).
T1 construct: host or cells: C6 glioma cells overexpressing hEP4
The experiment is described as follows: hEP4 cell based assay (cAMP), inhibition of PGE2 induced cAMP, HTRF. The following applies: 1 μM compound, PGE2 at EC80. In short, it runs like this:
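C6 glioma cells overexpressing hEP4 were pre-incubated 15 min with compound plus IBMX and Ro 20-1724 (each […]), then stimulated 30 min with PGE2 at EC80; 1% DMSO. cAMP was read by competitive HTRF (665/620 nm); IC50 came from non-linear regression, with agonist-only as 0% and no-agonist as 100% inhibition.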
Background: Time-resolved FRET reads energy transfer from a long-lived donor to a nearby acceptor.

For the next experiment, the target named is T2, human EP4 receptor (Homo sapiens, UniProt P35408).
T2 construct: expressed in transfected cells; host or cells: FreeStyle293 (HEK293F) cells, transient transfection with pcDNA3.1(+), total membrane fraction
T2 sequence (P35408 whole entry): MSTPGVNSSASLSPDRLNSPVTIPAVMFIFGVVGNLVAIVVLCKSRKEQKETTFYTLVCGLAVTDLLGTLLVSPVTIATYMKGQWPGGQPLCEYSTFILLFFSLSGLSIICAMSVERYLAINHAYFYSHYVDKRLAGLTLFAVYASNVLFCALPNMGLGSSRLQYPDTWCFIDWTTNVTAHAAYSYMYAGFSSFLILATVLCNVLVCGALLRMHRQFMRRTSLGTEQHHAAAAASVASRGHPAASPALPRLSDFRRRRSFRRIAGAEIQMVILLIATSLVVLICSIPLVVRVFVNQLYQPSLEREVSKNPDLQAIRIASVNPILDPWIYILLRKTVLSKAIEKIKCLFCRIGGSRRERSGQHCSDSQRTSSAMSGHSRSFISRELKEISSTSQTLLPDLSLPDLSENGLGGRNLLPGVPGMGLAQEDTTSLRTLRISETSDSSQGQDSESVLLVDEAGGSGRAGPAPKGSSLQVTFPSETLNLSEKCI
In words: hEP4 radioligand binding assay ([3H] PGE2 competitive binding, membrane fractions). The following applies: 300 nM compound; 1 nM [3H] PGE2. In short, it runs like this: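 Membranes from FreeStyle293 (HEK293F) cells transiently expressing full-length human EP4; 10 μg protein incubated with compound and 1 nM [3H]PGE2 in 50 mM Tris-HCl pH 6.0, 10 mM MgCl2, 0.5 mM EDTA, 1% DMSO, 2 h at room temperature. Nonspecific binding with 10 μM unlabeled PGE2; filtration and scintillation counting; Ki by one-site fit.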

T1 sequence (P35408 whole entry): as above

As for `C[C@H](Nc1nccc2c1N(Cc1cccc(Cl)c1)CCO2)c1ccc(C(=O)O)cc1` [Example B2, 4-[(1S)-1-[[4-[(3-Chlorophenyl)methyl]-2,3-dihydropyrido[4,3-b][1,4]oxazin-5-yl]amino]ethyl]benzoic acid], the “% reduction in arthritis score” value in experiment [1] (0.1 mg/kg BID) is on record as 23%; in experiment [1] (0.3 mg/kg BID), 45%; in experiment [1] (1 mg/kg BID), 46%; in experiment [1] (3 mg/kg BID), 67%; in experiment [1] (10 mg/kg BID), 68%; in experiment [1] (30 mg/kg BID), 71%. For the same molecule, in experiment [1], the ED50 came out at 0.76 mg/kg. Besides, the inhibition at 1 µM in experiment [2] is 100%. The molecule further registered an inhibition at 0.3 µM at human EP4 receptor of 98%.
In turn, `C[C@H](Nc1nccc2c1N(Cc1ccc(C(F)(F)F)cc1)CCO2)c1ccc(C(=O)NOCc2ccccc2)cc1` [Example D5, N-benzyloxy-4-[(1S)-1-[[4-[[4-(trifluoromethyl)phenyl]methyl]-2,3-dihydropyrido[4,3-b][1,4]oxazin-5-yl]amino]ethyl]benzamide] registered an inhibition at 1 µM in experiment [2] of 90%. The same molecule showed an inhibition at 0.3 µM on human EP4 receptor of 88%.
As to `COc1ccc(CN2CCOc3ccnc(N[C@@H](C)c4ccc(C(=O)O)cc4)c32)cc1` [Example B15, 4-[(1S)-1-[[4-[(4-methoxyphenyl)methyl]-2,3-dihydropyrido[4,3-b][1,4]oxazin-5-yl]amino]ethyl]benzoic acid], in experiment [2], 1 µM produced 99% inhibition. Moreover, at human EP4 receptor, testing at 0.3 µM gave an inhibition of 98%.
Take `O=C(O)c1ccc(C2(Nc3nccc4c3N(Cc3ccc(F)c(F)c3)CCO4)CC2)cc1` [Example B4, 4-[1-[[4-[(3,4-Difluorophenyl)methyl]-2,3-dihydropyrido[4,3-b][1,4]oxazin-5-yl]amino]cyclopropyl]benzoic acid]: the “% reduction in arthritis score” value in experiment [1] (0.1 mg/kg BID) is 3%; in experiment [1] (0.3 mg/kg BID) it was 4%; in experiment [1] (1 mg/kg BID) it was 27%; in experiment [1] (3 mg/kg BID) it was 39%; in experiment [1] (10 mg/kg BID), 51%; in experiment [1] (30 mg/kg BID), 55%. In experiment [1], the median effective dose (ED50) was 8.8 mg/kg. In experiment [2], this molecule had an inhibition at 1 µM of 97%. Further, on human EP4 receptor, 0.3 µM produced 83% inhibition.
Regarding `O=C(O)c1ccc(C2(Nc3nccc4c3N(Cc3ccccc3)CCO4)CC2)cc1` [Example B22, 4-[1-[(4-benzyl-2,3-dihydropyrido[4,3-b][1,4]oxazin-5-yl)amino]cyclopropyl]benzoic acid], in experiment [2], the inhibition at 1 µM came out at 90%. Also, on human EP4 receptor, the inhibition at 0.3 µM came to 80%.

Usually ED50 stands for the dose that gives a 50% effect, or the effect in half of the subjects. The term inhibition denotes the change of the read-out against control, counted positive when it falls.
